# Experimental data as given in US12529022B2, “Human organ-on-chip models for predictive screening” (The Trustees of Columbia University in the City of New York, priority 2018, dated 2026).
# Assays:
# [1] = system: ES model; assay: Immunohistochemical Ki67 staining and TUNEL assay of the ES model; type: cell-based, human; conditions: ES model after linsitinib treatment
# Text: To assess apoptosis, paraffin embedded tissue sections were first deparaffinized with CitriSolv, rehydrated with graded series of ethanol washes, and then stained with a Click-iT® TUNEL Alexa Fluor® imaging assay (Thermo Fisher Scientific).
# [2] = system: non-metastatic (RD-ES cell line derived) Ewing sarcoma OOC; assay: Non-metastatic Ewing sarcoma OOC, luciferase luminescence (cancer cell number and viability); type: cell-based, human; conditions: 12 μM
# Method: Drug treatment experiments recapitulating the patient treatment regimens and the patient plasma concentration of 12 μM of linsitinib were then carried out on the nonmetastatic and metastatic TE-ES and OS models. FIGS. 42 and 43 are graphs illustrating non-metastatic (RD-ES cell line derived, FIG. 42) and metastatic (SK-N-MC cell line derived, FIG. 43) Ewing sarcoma OOCs were exposed to linsitinib (12 μM) according to the drug treatment regimen. Luminescence as a function of cancer cell number and viability was measured (mean±s.e.m., n=6 for day 3, and n=3 for day 7 and 21, biologically independent per group). Significance was determined by unpaired two-tailed Student's t test of treatment group at specific day with respective control; *P<0.05; **P<0.01; ***P<0.001. Tissue engineered bone tumor models: Using an established protocol, expanded MSCs were seeded into the bone matrix scaffolds (4 mm×4 mm×1 mm) at a concentration of 10^6 cells per scaffold, using 40 μL of medium. The cells were allowed to attach for 2 hours, and then supplemented with additional mesenchymal stem cell medium overnight. The following day, osteogenic differentiation of the seeded cells was initiated by addition of low glucose DMEM supplemented with 1 μM dexamethasone (Sigma-Aldrich), 10 mM β-glycerophosphate (SigmaAldrich), and 50 μM L-ascorbic acid-2-phosphate (Sigma Aldrich). Each scaffold was incubated in 4 mL of osteogenic media, with media changes three times a week, for 3 weeks, allowing for the MSCs to differentiate into functional, maturing osteoblasts. Two weeks following the initiation of osteogenic differentiation, aggregates of tumor cells were prepared as described previously. Briefly, 0.3×10^6 cells were used to form ES aggregates and 0.5×10^6 cells were used to form OS aggregates. After 1 week of culture, the primary bone tumor aggregates were infused into the differentiated osteoblastseeded bone scaffolds (3 aggregates per scaffold, placed apart of each other). Tumor models were established for each of the two ES cell types (non-metastatic RD-ES, metastatic SK-NMC) and three OS cell types (non-metastatic U2-OS and Saos2, metastatic KHOS/NP). TE-RD-ES were cultured in the RPMI medium, TE-U-2 OS in DMEM, TE-Saos2 in McCoy's 5A, and TESK-N-MC and TE-KHOS/NP both in EMEM. Scaffolds without aggregates were used as healthy bone controls for each tumor model (termed TE-bone) and were cultured in the respective cancer cell line medium. […] Cell viability: Cancer cell viability was measured for GFP-Luciferase labelled cancer cells using ONE-Glo luciferase substrate that was prepared according to manufacturer's protocol (Promega). […] Cardiac cell viability was assessed through the Pierce LDH Cytotoxicity Assay Kit (Thermo Fisher Scientific). […]
# [3] = system: metastatic (SK-N-MC cell line derived) Ewing sarcoma OOC; assay: Metastatic Ewing sarcoma OOC, luciferase luminescence (cancer cell number and viability); type: cell-based, human; conditions: 12 μM
# Method: Drug treatment experiments recapitulating the patient treatment regimens and the patient plasma concentration of 12 μM of linsitinib were then carried out on the nonmetastatic and metastatic TE-ES and OS models. FIGS. 42 and 43 are graphs illustrating non-metastatic (RD-ES cell line derived, FIG. 42) and metastatic (SK-N-MC cell line derived, FIG. 43) Ewing sarcoma OOCs were exposed to linsitinib (12 μM) according to the drug treatment regimen. Luminescence as a function of cancer cell number and viability was measured (mean±s.e.m., n=6 for day 3, and n=3 for day 7 and 21, biologically independent per group). Significance was determined by unpaired two-tailed Student's t test of treatment group at specific day with respective control; *P<0.05; **P<0.01; ***P<0.001. Tissue engineered bone tumor models: Using an established protocol, expanded MSCs were seeded into the bone matrix scaffolds (4 mm×4 mm×1 mm) at a concentration of 10^6 cells per scaffold, using 40 μL of medium. The cells were allowed to attach for 2 hours, and then supplemented with additional mesenchymal stem cell medium overnight. The following day, osteogenic differentiation of the seeded cells was initiated by addition of low glucose DMEM supplemented with 1 μM dexamethasone (Sigma-Aldrich), 10 mM β-glycerophosphate (SigmaAldrich), and 50 μM L-ascorbic acid-2-phosphate (Sigma Aldrich). Each scaffold was incubated in 4 mL of osteogenic media, with media changes three times a week, for 3 weeks, allowing for the MSCs to differentiate into functional, maturing osteoblasts. Two weeks following the initiation of osteogenic differentiation, aggregates of tumor cells were prepared as described previously. Briefly, 0.3×10^6 cells were used to form ES aggregates and 0.5×10^6 cells were used to form OS aggregates. After 1 week of culture, the primary bone tumor aggregates were infused into the differentiated osteoblastseeded bone scaffolds (3 aggregates per scaffold, placed apart of each other). Tumor models were established for each of the two ES cell types (non-metastatic RD-ES, metastatic SK-NMC) and three OS cell types (non-metastatic U2-OS and Saos2, metastatic KHOS/NP). TE-RD-ES were cultured in the RPMI medium, TE-U-2 OS in DMEM, TE-Saos2 in McCoy's 5A, and TESK-N-MC and TE-KHOS/NP both in EMEM. Scaffolds without aggregates were used as healthy bone controls for each tumor model (termed TE-bone) and were cultured in the respective cancer cell line medium. All culture media were supplemented with 10% FBS and 1% penicillin/streptomycin. […] Tissues were randomly assigned to experimental groups. Medium was changed every day. Cardiac tissues were exposed to linsitinib for 3 days. The bone tumor models were exposed to a physiological treatment regimen consisted of cycles that involved 3 consecutive days of treatment followed by 4 days without drug, unless otherwise stated. Cell viability: Cancer cell viability was measured for GFP-Luciferase labelled cancer cells using ONE-Glo luciferase substrate that was prepared according to manufacturer's protocol (Promega). Samples were collected following 3, 7, and 21-day cycles of Linsitinib treatment. Cardiac cell viability was assessed through the Pierce LDH Cytotoxicity Assay Kit (Thermo Fisher Scientific). Samples were collected at 0 h, 1 h and 72 h.
# [4] = system: human cardiac OOC; assay: Cardiac OOC extracellular LDH cytotoxicity assay; type: cell-based; conditions: after linsitinib exposure
# Method: Tissues were randomly assigned to experimental groups. Medium was changed every day. Cardiac tissues were exposed to linsitinib for 3 days.
# Cell viability: Cancer cell viability was measured for GFP-Luciferase labelled cancer cells using ONE-Glo luciferase substrate that was prepared according to manufacturer's protocol (Promega). Samples were collected following 3, 7, and 21-day cycles of Linsitinib treatment. Cardiac cell viability was assessed through the Pierce LDH Cytotoxicity Assay Kit (Thermo Fisher Scientific). Samples were collected at 0 h, 1 h and 72 h.
structure (smiles),measurement,setting,value
"C[C@]1(O)C[C@@H](c2nc(-c3ccc4ccc(-c5ccccc5)nc4c3)c3c(N)nccn32)C1 [linsitinib, Linsitinib (OSI-906)]",apoptosis by TUNEL assay,[1],increases in apoptosis
same,proliferation via Ki67-staining,[1],reduced proliferation
same,course of treated cancer cell population,[2]; 21-day treatment cycle,stopped expanding after the treatment
same,luminescence (cancer cell number and viability) vs control,[2]; day 3,significant drug response
same,luminescence (cancer cell number and viability) vs control,[2]; day 7,significant responses
same,luminescence (cancer cell number and viability) vs control,[2]; day 21,significant responses
same,course of treated cancer cell population,[3]; 21-day treatment cycle,continued to expand throughout the 21-day treatment cycle
same,drug efficacy after day 3,[3]; after 3 days,decrease in drug efficacy
same,luminescence (cancer cell number and viability) vs control,[3]; day 3,significant drug response
same,luminescence (cancer cell number and viability) vs control,[3]; day 7,significant responses
same,luminescence (cancer cell number and viability) vs control,[3]; day 21,significant responses
same,extracellular lactate dehydrogenase (LDH),[4],increased levels
